Source: patent US5591773A, “Inhibition of cataract formation, diseases resulting from oxidative stress, and HIV replication by caffeic acid esters” (priority 1994, dated 1997)

Assays:
[1] = test system: TPA-induced PMN infiltration in SENCAR mouse ears (MPO); experiment: TPA-induced PMN infiltration (MPO) in mouse ears; type: in vivo, SENCAR mice; conditions: for MPO in mouse ears, TPA only: TPA 0.4 nmol/ear, 5 h
Experimental: (§1) FIG. 3. Effect of CAPE on TPA-induced PMN infiltration and edema in SENCAR mouse ears. These were paired experiments, in which both ears of each mouse (8-9/group) were treated with 0.4 nmol TPA±CAPE in 20 μl acetone, and the mice were sacrificed 5 h later. (A) One ear was frozen for subsequent determination of MPO (a measure of PMN infiltration). (B) A punch (6 mm diameter) was taken from the second ear and weighed to measure edematous response (weight of sample minus weight of control). (A) Ears of each group (7-9/group) were separately minced and homogenized under different conditions as described in the "Experimental Details" Section, infra. MPO was determined in duplicate. MPO was undetectable in acetone controls and was 4.13±0.0 units/mg protein and 1.18±0.1 units/mg protein in the 2 homogenates of TPA-only-treated mice. CAPE-mediated inhibition was calculated versus the appropriate TPA-only sample, which was homogenized the same way. (B) Weights of ear punches (8-9/group, each determined separately). Acetone controls, 7.2±0.1 mg; TPA in acetone, 16.7±0.7 mg.
B) Edema Determination. Both ears of SENCAR mice (7-9 mice/group) were treated with 0.4 nmol TPA in 20 μl acetone alone or together with added 0.1 nmol, 0.3 nmol, or 1 μmol CAPE. […] The mice were sacrificed by cervical dislocation 5 h after treatment, and edema was measured on one mouse ear, while the second ear was immediately frozen and later analyzed for PMN infiltration by quantifying myeloperoxidase (MPO) (see below). Ear edema (increased weight of ear punches) was determined as previously described (24). Edema was expressed as mg/6 mm (diameter) ear punch±SE.
The assay for MPO was carried out according to the procedure of Metcalf et al. (53) with some modifications (20), and the results are expressed as units/cm^2, where a unit is defined as that degrading 1 μmol H2 O2 /min at 25° C. The presence of MPO in the mouse ears was measured in the homogenates. […] Each homogenate was analyzed in duplicate and the results are expressed as mean MPO (units/mg protein) ±SE for each of the homogenates.

[2] = test system: TPA-induced edema in SENCAR mouse ears; experiment: TPA-induced ear edema; type: in vivo, SENCAR mice
Experimental: as §1
B) Edema Determination. Both ears of SENCAR mice (7-9 mice/group) were treated with 0.4 nmol TPA in 20 μl acetone alone or together with added 0.1 nmol, 0.3 nmol, or […] CAPE. Control mice were treated with acetone. The mice were sacrificed by cervical dislocation 5 h after treatment, and edema was measured on one mouse ear, while the second ear was immediately frozen and later analyzed for PMN infiltration by quantifying myeloperoxidase (MPO) (see below). Ear edema (increased weight of ear punches) was determined as previously described (24). Edema was expressed as mg/6 mm (diameter) ear punch±SE.

bovine lens (H2O2) = experiment: H2O2 formation in bovine lens; type: cell-based; conditions: for H2O2 / increase in H2O2 concentration over control lenses: 24 h; for H2O2: mean of 3 ± SE
Experimental: B) Bovine Lens Bovine lenses were obtained from a New Jersey slaughterhouse 3 h after the animals were sacrificed. Lenses were immediately immersed in artificial aqueous humor (AAH; 130 mMNaCl, 5 mMKCl, 1 mM CaCl2, 0.5 mM MgCl2, 10 mM NaHCO3, 10 mM 4-(2-hydroxyethyl)-1-piperazineethanesulfonic acid (pH 7.3), and 2.5 mM D-glucose). Each of the bovine lenses in AAH (about 15 ml/lens) supplemented with 10 mM azide (a catalase inhibitor) was incubated with various amounts (0-1 μM) TPA at 37° C. for 24 h in the presence or absence of CAPE (1 μM), as described for use of other chemopreventive agents (31). For comparison, the lenses were also incubated with glucose (2.5 mM)/glucose oxidase (25 μM), a H2 O2 -generating system.
After incubation, lenses were homogenized in 15 ml of azide-supplemented AAH in a Waring Blender, and H2 O2 content was determined spectrofluorometrically, as described previously (55). Briefly, the homogenates were incubated with 2',7'-dichlorofluorescin diacetate, which is deacetylated by the esterase present in the homogenate. In the presence of HRPO, the nonfluorescent substrate was oxidized by H2 O2 generated in the lens to a highly fluorescent product, which was measured at excitation 475 nm and emission 525 nm (30, 31, 55). The amount of H2 O2 generated was determined from a standard curve, which was constructed by addition of increasing concentrations of H2 O2 to a homogenate derived from a control lens incubated only in AAH.

Structure (SMILES): O=C(/C=C/c1ccc(O)c(O)c1)OCCc1ccccc1 [CAPE, Caffeic acid phenethyl ester]
- suppression of TPA-induced PMN infiltration, ear ([1]; CAPE 0.1 nmol/ear, TPA 0.4 nmol): ~50%
- orders of magnitude higher CAPE dose needed for similar inhibition of edema vs PMN infiltration ([2]; 1 μmol vs 0.1 nmol CAPE/ear): 4 orders of magnitude
- inhibition of TPA-induced ear edema (in words) ([2]; CAPE 1 μmol/ear, TPA 0.4 nmol/ear): inhibits
- fold higher CAPE dose required to comparably inhibit ear edema versus PMN infiltration in skin ([2]; relative to 6.5 nmol CAPE, same mouse strain, (76)): > 100 fold
- H2O2 (bovine lens (H2O2); 1 μM CAPE 30 min then 0.1 μM TPA): 13.1 ± 1.3 µM
- H2O2, % of change from control (bovine lens (H2O2); 1 μM CAPE/0.1 μM TPA): 110%
- inhibition at 1 µM (bovine lens (H2O2); Bos taurus, 1 μM CAPE 30 min, then 0.1 μM TPA 24 h, read-out: decline in TPA-induced H2O2 production): ~95%

Structure (SMILES): CCCCCCCCCCCCCC(=O)O[C@@H]1[C@@H](C)[C@@]2(O)[C@@H](C=C(CO)C[C@]3(O)C(=O)C(C)=C[C@@H]23)[C@@H]2C(C)(C)[C@]12OC(C)=O [TPA, 12-O-tetradecanoylphorbol-13-acetate]
- MPO in mouse ears, TPA only ([1]; first of 2 homogenates): 4.13±0.0 units/mg protein
- MPO in mouse ears, TPA only ([1]; second of 2 homogenates): 1.18±0.1 units/mg protein
- weight of ear punches ([2]; TPA 0.4 nmol in acetone, 5 h, 6 mm punch): 16.7 ± 0.7 mg
- H2O2, % of change from control (bovine lens (H2O2); 0.01 μM TPA): 95%
- H2O2 (bovine lens (H2O2); 0.01 μM TPA): 11.3 ± 0.2 µM
- H2O2, % of change from control (bovine lens (H2O2); 0.05 μM TPA): 200%
- increase in H2O2 concentration over control lenses (bovine lens (H2O2); 0.05 μM TPA): about 2 fold
- H2O2 (bovine lens (H2O2); 0.05 μM TPA): 23.3 ± 1.3 µM
- H2O2, % of change from control (bovine lens (H2O2); 0.10 μM TPA): 360%
- increase in H2O2 concentration over control lenses (bovine lens (H2O2); 0.1 μM TPA): ~3.5 fold
- H2O2 (bovine lens (H2O2); 0.10 μM TPA): 42.7 ± 1.6 µM
- H2O2, % of change from control (bovine lens (H2O2); 1.0 μM TPA): 705%
- increase in H2O2 concentration over control lenses (bovine lens (H2O2); 1.0 μM TPA): ~7 fold
- H2O2 (bovine lens (H2O2); 1.0 μM TPA): 83.8 ± 5.6 µM
